Experiments:
Conditions in all cases: labelled compound; 5 mM MgCl2, 50 mM KCl, Tris-HCl pH 8.0, 37 °C
[1] = molecular target: ICE1056Fin (Haemophilus influenzae, UniProt A0A8I2XW01)
[2] = molecular target: RK2 KorB (Escherichia coli, UniProt P07674)
[3] = molecular target: P1 ParB (Punavirus P1, UniProt Q38420)
P1 ParB, sequence (Q38420 1-333): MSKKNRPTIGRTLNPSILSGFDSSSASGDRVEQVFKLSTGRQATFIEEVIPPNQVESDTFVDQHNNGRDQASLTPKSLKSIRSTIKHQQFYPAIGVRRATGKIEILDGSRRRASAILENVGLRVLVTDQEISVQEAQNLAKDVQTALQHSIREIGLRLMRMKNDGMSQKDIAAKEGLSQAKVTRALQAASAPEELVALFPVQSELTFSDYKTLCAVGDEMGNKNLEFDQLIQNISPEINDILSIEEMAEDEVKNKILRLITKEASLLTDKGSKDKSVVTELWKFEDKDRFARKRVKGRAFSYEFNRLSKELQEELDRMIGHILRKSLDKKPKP

RK2 KorB, sequence (P07674 whole entry): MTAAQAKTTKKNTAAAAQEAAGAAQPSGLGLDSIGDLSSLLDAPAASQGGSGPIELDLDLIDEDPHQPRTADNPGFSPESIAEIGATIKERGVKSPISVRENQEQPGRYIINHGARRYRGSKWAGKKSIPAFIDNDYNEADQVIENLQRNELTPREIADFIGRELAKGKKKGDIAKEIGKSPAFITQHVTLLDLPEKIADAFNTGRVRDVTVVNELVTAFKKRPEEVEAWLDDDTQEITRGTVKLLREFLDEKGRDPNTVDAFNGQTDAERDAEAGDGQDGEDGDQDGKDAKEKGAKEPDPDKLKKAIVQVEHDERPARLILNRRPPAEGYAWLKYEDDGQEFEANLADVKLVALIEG
ICE1056Fin, sequence (A0A8I2XW01 1-185): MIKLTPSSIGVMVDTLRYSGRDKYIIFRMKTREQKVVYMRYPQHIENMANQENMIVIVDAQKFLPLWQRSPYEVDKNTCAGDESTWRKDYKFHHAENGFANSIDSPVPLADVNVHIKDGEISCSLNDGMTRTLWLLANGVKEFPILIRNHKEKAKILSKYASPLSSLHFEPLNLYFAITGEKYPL

In the case of `Nc1ncnc2c1ncn2[C@@H]1O[C@H](COP(=O)(O)OP(=O)(O)OP(=O)(O)O)[C@@H](O)[C@H]1O` [ATP], the “TLC ATPase assay, γ-phosphate release” value [1] was “ICE1056Fin, P1 ParB and RK2 KorB also exhibited comparable ATPase activity”, the “TLC ATPase assay, γ-phosphate release” value [2] was “ICE1056Fin, P1 ParB and RK2 KorB also exhibited comparable ATPase activity” and the “TLC ATPase assay, γ-phosphate release” value [3] was “ICE1056Fin, P1 ParB and RK2 KorB also exhibited comparable ATPase activity”.

Reference: article PMC4241021 (Nature communications, 2014)
